Measurements reported in publication PMC6979384, “Characterization of the plant homeodomain (PHD) reader family for their histone tail interactions” (Epigenetics & Chromatin, 2020).
Where no end group is shown, it is not given here.

Tests used:
Experiment in all cases: Histone peptide microarray
Type in all cases: binding, human
[1] = system: ING2; details: ING2, GST-tagged; arrays performed twice, n of 4
Description: (§1) To more comprehensively define the histone interactions of the 31 PHD readers identified from the domain microarray analyses, we probed each on an alternate microarray platform containing a library of 293 synthetic histone peptides with single or combinatorial PTMs (Additional file 2: Figure S4 and Additional file 3: Table S2).
(§2) The 31 GST-tagged PHD readers identified in the PHD finger domain array were expressed and purified as previously. Histone peptide arrays and peptide pulldown assays were conducted as recently described (specifically, the optimized protocol from Petell et al. for the former).
(§3) Supplementary file 13072_2020_328_MOESM3_ESM.xlsx: Additional file 3: Table S2. […] Excel Tab Peptide List is a compiled list of the entire 293 histone peptide library with amino acid sequence ranges. […] Each number corresponds to the peptide number designated in Peptide List. Excel Tab Average Signals is a compiled set of binding data: chromatin reader at 0.5 μM vs. entire 293 peptide library. Data is presented as the average and standard deviation of 4 replicates. The average signals are colored to indicate signal intensity with green being strong and white being weak/low. […] Key: red= stronger relative binding; blue = weaker relative binding. Excel Tab Array info summary is a table summarizing the domains, sequence coverage, array signal range, and noise for each of the GST-tagged readers assayed on the peptide microarrays.

[2] = system: RAG2; details: RAG2, GST-tagged; arrays performed twice, n of 4
Description: as §1, §2, §3

[3] = system: ING4; details: ING4, GST-tagged; arrays performed twice, n of 4
Description: as §1, §2, §3

[4] = system: PHRF1 (RP); details: PHRF1 (RP), GST-tagged; arrays performed twice, n of 4
Description: as §1, §2, §3

[5] = system: TRIM66 (PB); details: TRIM66 (PB), GST-tagged; arrays performed twice, n of 4
Description: as §1, §2, §3

[6] = system: PHF23; details: PHF23, GST-tagged; arrays performed twice, n of 4
Description: as §1, §2, §3

[7] = system: KDM5B (3); details: KDM5B (3), GST-tagged; arrays performed twice, n of 4
Description: as §1, §2, §3

[8] = system: CHD5 (PPCC); details: CHD5 (PPCC), GST-tagged; arrays performed twice, n of 4
Description: as §1, §2, §3

[9] = system: AIRE (PP); details: AIRE (PP), GST-tagged; arrays performed twice, n of 4
Description: as §1, §2, §3

[10] = system: PHF2; details: PHF2, GST-tagged; arrays performed twice, n of 4
Description: as §1, §2, §3

[11] = system: PHF21A; details: PHF21A, GST-tagged; arrays performed twice, n of 4
Description: as §1, §2, §3

[12] = system: CHD5 (PCC); details: CHD5 (PCC), GST-tagged; arrays performed twice, n of 4
Description: as §1, §2, §3

[13] = system: MORC3 (CW); details: MORC3 (CW), GST-tagged; arrays performed twice, n of 4
Description: as §1, §2, §3

[14] = system: ING3; details: ING3, GST-tagged; arrays performed twice, n of 4
Description: as §1, §2, §3

[15] = system: KDM5A (1); details: KDM5A (1), GST-tagged; arrays performed twice, n of 4
Description: as §1, §2, §3

[16] = system: BPTF (PB); details: BPTF (PB), GST-tagged; arrays performed twice, n of 4
Description: as §1, §2, §3

[17] = system: KDM4C (TTP); details: KDM4C (TTP), GST-tagged; arrays performed twice, n of 4
Description: as §1, §2, §3

[18] = system: ING5; details: ING5, GST-tagged; arrays performed twice, n of 4
Description: as §1, §2, §3

[19] = system: KDM5A (3); details: KDM5A (3), GST-tagged; arrays performed twice, n of 4
Description: as §1, §2, §3

[20] = system: ING1; details: ING1, GST-tagged; arrays performed twice, n of 4
Description: as §1, §2, §3

[21] = system: DIDO1; details: DIDO1, GST-tagged; arrays performed twice, n of 4
Description: as §1, §2, §3

[22] = system: MLL5; details: MLL5, GST-tagged; arrays performed twice, n of 4
Description: as §1, §2, §3

[23] = system: KDM7A; details: KDM7A, GST-tagged; arrays performed twice, n of 4
Description: as §1, §2, §3

[24] = system: DPF2 (PPC2W2); details: DPF2 (PPC2W2), GST-tagged; arrays performed twice, n of 4
Description: as §1, §2, §3

[25] = system: SP140L; details: SP140L, GST-tagged; arrays performed twice, n of 4
Description: as §1, §2, §3

[26] = system: CHD4 (PPCC); details: CHD4 (PPCC), GST-tagged; arrays performed twice, n of 4
Description: as §1, §2, §3

[27] = system: PHF8; details: PHF8, GST-tagged; arrays performed twice, n of 4
Description: as §1, §2, §3

[28] = system: TAF3; details: TAF3, GST-tagged; arrays performed twice, n of 4
Description: as §1, §2, §3

[29] = system: PHF13; details: PHF13, GST-tagged; arrays performed twice, n of 4
Description: as §1, §2, §3

[30] = system: BAZ2B; details: BAZ2B, GST-tagged; arrays performed twice, n of 4
Description: as §1, §2, §3

[31] = system: KDM5B (1); details: KDM5B (1), GST-tagged; arrays performed twice, n of 4
Description: as §1, §2, §3

In the case of “H2A.Z (1-19) (N-ac): H2AZ 1-19 (Ac-AGGKAGKDSGKAKTKAVSR; UniProt P0C0S5 2-20, looked up, fragment)”, the “Array Heatmap value (peptide array binding signal)” value (“Array Heatmap value” below) [1] was 0.5892, the “Array Heatmap value” value [2] was 0.2204 and the “Array Heatmap value” value [3] was 0.3991. For the same substance, the “Array Heatmap value” value [4] was 0.3855, the “Array Heatmap value” value [5] was 0.556 and the “Array Heatmap value” value [6] was 0.4986. For the same substance, the “Array Heatmap value” value [7] was 0.4159, the “Array Heatmap value” value [8] was 0.4838 and the “Array Heatmap value” value [9] was 0.3861. For the same substance, the “Array Heatmap value” value [10] was 0.4703, the “Array Heatmap value” value [11] was 0.4295 and the “Array Heatmap value” value [12] was 0.7354. The “Array Heatmap value” value [13] was 0.339, the “Array Heatmap value” value [14] was 0.4524 and the “Array Heatmap value” value [15] was 0.3887. The “Array Heatmap value” value [16] was 0.3189, the “Array Heatmap value” value [17] was 0.4403 and the “Array Heatmap value” value [18] was 0.2996. For the same substance, the “Array Heatmap value” value [19] was 0.4284, the “Array Heatmap value” value [20] was 0.4946 and the “Array Heatmap value” value [21] was 0.6117. The “Array Heatmap value” value [22] was 0.5006, the “Array Heatmap value” value [23] was 0.3467 and the “Array Heatmap value” value [24] was 0.6034. The “Array Heatmap value” value [25] was 0.3411, the “Array Heatmap value” value [26] was 0.5396 and the “Array Heatmap value” value [27] was 0.3344. The “Array Heatmap value” value [28] was 0.2353, the “Array Heatmap value” value [29] was 0.5558 and the “Array Heatmap value” value [30] was 0.3915. For the same substance, the “Array Heatmap value” value [31] was 0.624.
“H2A.Z (1-19): H2AZ 1-19 (AGGKAGKDSGKAKTKAVSR; UniProt P0C0S5 2-20, looked up, fragment)” was tested, and the “Array Heatmap value” value [1] was 0.6115, the “Array Heatmap value” value [2] was 0.2847 and the “Array Heatmap value” value [3] was 0.5367. For the same substance, the “Array Heatmap value” value [4] was 0.5374, the “Array Heatmap value” value [5] was 0.6377 and the “Array Heatmap value” value [6] was 0.5743. For the same substance, the “Array Heatmap value” value [7] was 0.4993, the “Array Heatmap value” value [8] was 0.6481 and the “Array Heatmap value” value [9] was 0.4876. For the same substance, the “Array Heatmap value” value [10] was 0.6568, the “Array Heatmap value” value [11] was 0.4938 and the “Array Heatmap value” value [12] was 0.7976. The “Array Heatmap value” value [13] was 0.3781, the “Array Heatmap value” value [14] was 0.5693 and the “Array Heatmap value” value [15] was 0.5328. The “Array Heatmap value” value [16] was 0.4073, the “Array Heatmap value” value [17] was 0.563 and the “Array Heatmap value” value [18] was 0.4264. The “Array Heatmap value” value [19] was 0.4992, the “Array Heatmap value” value [20] was 0.6166 and the “Array Heatmap value” value [21] was 0.7863. For the same substance, the “Array Heatmap value” value [22] was 0.5607, the “Array Heatmap value” value [23] was 0.3952 and the “Array Heatmap value” value [24] was 0.7315. For the same substance, the “Array Heatmap value” value [25] was 0.3948, the “Array Heatmap value” value [26] was 0.6658 and the “Array Heatmap value” value [27] was 0.402. The “Array Heatmap value” value [28] was 0.3163, the “Array Heatmap value” value [29] was 0.7054 and the “Array Heatmap value” value [30] was 0.5259. The “Array Heatmap value” value [31] was 0.6378.
